Source: ChEMBL document CHEMBL4229425, “Discovery and characterization of N-(1,3-dialkyl-1H-indazol-6-yl)-1H-pyrazolo[4,3-b]pyridin-3-amine scaffold as mGlu4 positive allosteric modulators that mitigate CYP1A2 induction liability” (Bioorg Med Chem Lett, 2018)

Tests used:
[1] = molecular target: T1, Metabotropic glutamate receptor 4 (Homo sapiens, UniProt Q14833); assay: Positive allosteric modulation of human mGluR4 expressed in CHO cells co-expressing Gqi5 assessed as increase in glutamate-induced calcium flux preincubated for 2.5 mins followed by glutamate addition by Fluo-4-AM dye based fluorescence assay; format: functional, cell-based
T1 sequence (Q14833 whole entry): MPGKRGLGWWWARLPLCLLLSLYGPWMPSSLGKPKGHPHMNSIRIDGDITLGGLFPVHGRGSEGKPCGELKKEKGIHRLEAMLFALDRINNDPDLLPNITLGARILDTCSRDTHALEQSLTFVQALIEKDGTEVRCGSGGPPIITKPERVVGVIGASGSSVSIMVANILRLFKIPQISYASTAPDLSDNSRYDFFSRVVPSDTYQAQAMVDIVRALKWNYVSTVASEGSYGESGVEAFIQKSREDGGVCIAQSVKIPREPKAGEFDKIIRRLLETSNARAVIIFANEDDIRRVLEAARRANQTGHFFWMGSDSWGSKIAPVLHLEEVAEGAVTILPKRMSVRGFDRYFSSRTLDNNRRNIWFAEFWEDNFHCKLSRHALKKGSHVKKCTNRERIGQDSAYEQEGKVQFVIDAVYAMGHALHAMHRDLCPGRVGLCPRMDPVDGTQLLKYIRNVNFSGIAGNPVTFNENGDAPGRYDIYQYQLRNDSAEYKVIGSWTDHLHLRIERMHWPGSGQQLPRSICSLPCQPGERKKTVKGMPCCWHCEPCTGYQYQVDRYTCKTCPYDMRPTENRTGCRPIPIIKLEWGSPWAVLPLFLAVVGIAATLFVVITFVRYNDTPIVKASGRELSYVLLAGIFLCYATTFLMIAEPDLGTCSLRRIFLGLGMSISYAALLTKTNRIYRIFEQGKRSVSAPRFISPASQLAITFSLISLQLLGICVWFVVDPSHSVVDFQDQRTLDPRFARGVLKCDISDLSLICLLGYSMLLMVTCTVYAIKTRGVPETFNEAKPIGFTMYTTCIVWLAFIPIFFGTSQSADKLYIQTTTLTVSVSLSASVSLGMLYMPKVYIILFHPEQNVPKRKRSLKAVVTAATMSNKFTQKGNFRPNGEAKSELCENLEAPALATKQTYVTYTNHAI

[2] = molecular target: T1, Metabotropic glutamate receptor 4; assay: Positive allosteric modulation of human mGluR4 expressed in CHO cells co-expressing Gqi5 assessed as increase in glutamate-induced calcium flux at 30 uM preincubated for 2.5 mins followed by glutamate addition by Fluo-4-AM dye based fluorescence assay relative to PHCCC; format: functional, cell-based
[3] = Fraction unbound in rat plasma; format: ADME, cell-free
[4] = Fraction unbound in human plasma; format: ADME, cell-free
[5] = molecular target: T2, CYP1A2 (induction through the aryl hydrocarbon receptor, AhR) (Homo sapiens, UniProt P35869); assay: Activation of human AhR assessed as induction of CYP1A2 relative to control; format: ADME; settings: read-out: FC
T2 sequence (P35869 whole entry): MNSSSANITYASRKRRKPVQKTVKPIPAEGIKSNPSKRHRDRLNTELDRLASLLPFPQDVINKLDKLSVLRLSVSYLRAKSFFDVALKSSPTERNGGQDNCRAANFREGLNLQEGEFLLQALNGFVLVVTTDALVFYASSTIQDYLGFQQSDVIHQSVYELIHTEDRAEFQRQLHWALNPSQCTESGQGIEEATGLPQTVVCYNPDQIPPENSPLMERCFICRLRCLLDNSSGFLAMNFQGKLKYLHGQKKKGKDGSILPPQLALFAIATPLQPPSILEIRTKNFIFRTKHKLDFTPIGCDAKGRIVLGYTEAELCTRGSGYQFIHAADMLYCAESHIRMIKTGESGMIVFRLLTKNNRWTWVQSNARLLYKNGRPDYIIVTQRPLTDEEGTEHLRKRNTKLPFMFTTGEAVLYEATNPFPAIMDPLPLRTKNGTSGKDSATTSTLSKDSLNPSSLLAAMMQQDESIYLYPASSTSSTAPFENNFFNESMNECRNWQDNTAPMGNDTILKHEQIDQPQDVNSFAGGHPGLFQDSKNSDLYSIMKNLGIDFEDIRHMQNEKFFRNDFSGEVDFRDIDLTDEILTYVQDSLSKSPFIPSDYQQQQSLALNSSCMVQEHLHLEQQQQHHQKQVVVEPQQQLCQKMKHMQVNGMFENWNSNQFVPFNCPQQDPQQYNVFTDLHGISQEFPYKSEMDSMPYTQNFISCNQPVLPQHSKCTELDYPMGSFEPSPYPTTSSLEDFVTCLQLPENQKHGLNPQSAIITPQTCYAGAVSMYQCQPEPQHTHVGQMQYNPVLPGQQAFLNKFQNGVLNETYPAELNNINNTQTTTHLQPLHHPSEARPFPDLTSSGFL

[6] = molecular target: T3, Cytochrome P450 1A2 (Homo sapiens, UniProt P05177); assay: Inhibition of CYP1A2 in human liver microsomes; format: ADME
T3 sequence (P05177 whole entry): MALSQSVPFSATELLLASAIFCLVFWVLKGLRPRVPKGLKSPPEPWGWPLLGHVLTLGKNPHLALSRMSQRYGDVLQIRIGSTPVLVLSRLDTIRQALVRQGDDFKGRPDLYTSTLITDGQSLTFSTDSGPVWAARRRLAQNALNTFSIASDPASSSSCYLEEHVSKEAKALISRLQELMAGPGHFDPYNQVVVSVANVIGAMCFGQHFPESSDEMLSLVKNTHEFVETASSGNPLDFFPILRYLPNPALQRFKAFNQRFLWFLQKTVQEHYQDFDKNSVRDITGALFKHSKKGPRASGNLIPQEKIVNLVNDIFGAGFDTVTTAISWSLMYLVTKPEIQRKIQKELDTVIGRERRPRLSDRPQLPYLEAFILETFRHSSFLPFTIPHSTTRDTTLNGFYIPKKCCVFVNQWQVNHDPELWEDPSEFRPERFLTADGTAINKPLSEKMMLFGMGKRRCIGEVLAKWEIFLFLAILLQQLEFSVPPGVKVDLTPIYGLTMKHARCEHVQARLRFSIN

[7] = Clearance in rat liver microsomes; format: ADME, microsome
[8] = Drug uptake in rat brain at 10 mg/kg, po after 1 hr; format: ADME, organism-based; settings: read-out: Drug uptake
[9] = system: MDR1 (P-gp); assay: Efflux ratio of permeability in MDCK-MDR1 cells; format: ADME, cell-based, Canis lupus familiaris; settings: dog
[10] = Plasma concentration in rat at 10 mg/kg, po after 1 hr; format: ADME, organism-based
[11] = Brain to plasma partition coefficient, Kp of the compound in rat at 10 mg/kg, po after 1 hr; format: ADME, organism-based; settings: brain and plasma
[12] = Unbound brain to plasma concentration ratio in rat at 10 mg/kg, po after 1 hr; format: ADME, organism-based; settings: brain and plasma, read-out: K(p,uu,brain)

## Cn1nc(C(=O)N2CC[C@H](F)C2)c2ccc(Nc3n[nH]c4cccnc34)cc21
[1]; read-out: EC50
  EC50: 764 nM
[2]
  Emax: 55.5%

## Cn1nc(C2(C)CC2)c2ccc(Nc3n[nH]c4cccnc34)cc21
[1]; read-out: EC50
  EC50: 67.9 nM
[2]
  Emax: 83.7%

## CC(C)COc1nn(C)c2cc(Nc3n[nH]c4cccnc34)ccc12
[2]
  Emax: 86.7%

## Cn1ncc2ccc(Nc3n[nH]c4cccnc34)cc21
[3]
  fraction unbound: 0.061
[4]
  fraction unbound: 0.093
[5]
  fold induction: 154
[6]
  IC50: 110 nM
[1]; read-out: EC50
  EC50: 257 nM
[2]
  Emax: 105%
[7]
  CLhep predicted: 10.7 mL/min/kg

## Cn1nc(CC(F)(F)F)c2ccc(Nc3n[nH]c4cccnc34)cc21
[1]; read-out: EC50
  EC50: 95.5 nM
[2]
  Emax: 62.7%

## Fc1ccc(Nc2n[nH]c3cccnc23)cc1Cl
[3]
  fraction unbound: 0.028
[4]
  fraction unbound: 0.017
[6]
  IC50: < 100 nM
[7]
  CLhep predicted: 12.1 mL/min/kg

## Cn1nc(C2(C)CC2)c2ccc(Nc3n[nH]c4ncccc34)cc21
[1]; read-out: EC50
  EC50: 129 nM
[2]
  Emax: 84%

## FC(F)(F)Cn1nc(C2CC2)c2ccc(Nc3n[nH]c4cccnc34)cc21
[1]; cho
  EC50: Not Active

## Cn1nc(C2(C)CC2)c2ccc(Nc3n[nH]c4nccnc34)cc21
[1]; read-out: EC50
  EC50: 24.9 nM
[2]
  Emax: 94.8%

## Cc1c2ccc(Nc3n[nH]c4cccnc34)cc2nn1CC1CCC1
[1]; cho
  EC50: Not Active

## Cc1nnc2cc(Nc3n[nH]c4cccnc34)ccn12
[1]; cho
  EC50: Not Active

## Cc1nnc2ccc(Nc3n[nH]c4cccnc34)cn12
[1]; cho
  EC50: Not Active

## Cc1nn(C(C)C)c2cc(Nc3n[nH]c4cccnc34)ccc12
[1]; read-out: EC50
  EC50: 9890 nM
[2]
  Emax: 62%

## [2H]C([2H])([2H])Cn1nc(C2CC2)c2ccc(Nc3n[nH]c4ncccc34)cc21
[1]; read-out: EC50
  EC50: 160 nM

## Cn1ccc2cc(Nc3n[nH]c4cccnc34)ccc21
[1]; read-out: EC50
  EC50: 3590 nM
[2]
  Emax: 83.8%

## Cn1nc(C(=O)N2CC[C@@H](F)C2)c2ccc(Nc3n[nH]c4cccnc34)cc21
[1]; read-out: EC50
  EC50: 907 nM
[2]
  Emax: 41.9%

## Cn1nnc2ccc(Nc3n[nH]c4cccnc34)cc21
[1]; read-out: EC50
  EC50: 1430 nM
[2]
  Emax: 72.4%

## Cc1c2ccc(Nc3n[nH]c4cccnc34)cc2nn1C1CCCC1
[1]; cho
  EC50: Not Active

## Cn1nc(C(=O)N2CCCC2)c2ccc(Nc3n[nH]c4cccnc34)cc21
[1]; read-out: EC50
  EC50: 827 nM
[2]
  Emax: 41.6%

## Cn1nc(C(=O)N2CCC(F)(F)C2)c2ccc(Nc3n[nH]c4cccnc34)cc21
[1]; read-out: EC50
  EC50: 289 nM
[2]
  Emax: 57.8%

## Cn1nc(C(F)(F)F)c2ccc(Nc3n[nH]c4cccnc34)cc21
[1]; read-out: EC50
  EC50: 119 nM
[2]
  Emax: 77.5%

## Cc1nn(C)c2ccc(Nc3n[nH]c4cccnc34)cc12
[1]; read-out: EC50
  EC50: 345 nM
[2]
  Emax: 105%

## CCn1nc(Cl)c2cc(Nc3n[nH]c4cccnc34)ccc21
[1]; read-out: EC50
  EC50: 815 nM
[2]
  Emax: 67%

## CCn1nc(C)c2cc(Nc3n[nH]c4cccnc34)ccc21
[1]; read-out: EC50
  EC50: 95.1 nM
[2]
  Emax: 78.3%

## Cn1nc(C2CC2)c2ncc(Nc3n[nH]c4cccnc34)cc21
[1]; read-out: EC50
  EC50: 468 nM
[2]
  Emax: 75%

## Cn1cnc2ccc(Nc3n[nH]c4cccnc34)cc21
[1]; read-out: EC50
  EC50: > 10000 nM
[2]
  Emax: 54.6%

## [2H]C([2H])([2H])Cn1nc(C2CC2)c2ccc(Nc3n[nH]c4cccnc34)cc21
[1]; read-out: EC50
  EC50: 36.2 nM

## Cn1nc(C(=O)NC2CC(F)C2)c2ccc(Nc3n[nH]c4cccnc34)cc21 (centres undefined)
[1]; read-out: EC50
  EC50: 794 nM
[2]
  Emax: 74%

## Cn1nc(C2CC2)c2ccc(Nc3n[nH]c4ncccc34)cc21
[3]
  fraction unbound: 0.031
[4]
  fraction unbound: 0.03
[5]
  fold induction: 2.6
[6]
  IC50: 2600 nM
[1]; read-out: EC50
  EC50: 43.2 nM
[2]
  Emax: 94.8%
[7]
  CLhep predicted: 16.1 mL/min/kg

## Cn1nc(C2CC2)c2ccc(Nc3n[nH]c4nccnc34)cc21
[3]
  fraction unbound: 0.035
[4]
  fraction unbound: 0.03
[5]
  fold induction: 2.3
[6]
  IC50: 480 nM
[1]; read-out: EC50
  EC50: 19.8 nM
[2]
  Emax: 101%
[7]
  CLhep predicted: 22.4 mL/min/kg

## CN1CCC(Oc2nn(C)c3cc(Nc4n[nH]c5cccnc45)ccc23)CC1
[1]; read-out: EC50
  EC50: 1880 nM
[2]
  Emax: 88.3%

## Cn1nc(OC2CCOCC2)c2ccc(Nc3n[nH]c4cccnc34)cc21
[2]
  Emax: 85.1%

## CC(C)Oc1nn(C)c2cc(Nc3n[nH]c4cccnc34)ccc12
[2]
  Emax: 70.9%

## CCn1nc(C2CC2)c2ccc(Nc3n[nH]c4cccnc34)cc21
[1]; read-out: EC50
  EC50: 1210 nM
[2]
  Emax: 36.2%
[2]; tested as the 2H-labelled form
  Emax: 97.4%

## CCn1nc(C2CC2)c2ccc(Nc3n[nH]c4ncccc34)cc21
[2]; tested as the 2H-labelled form
  Emax: 75.7%

## Cc1nn(C2CCCC2)c2ccc(Nc3n[nH]c4cccnc34)cc12
[1]; read-out: EC50
  EC50: 265 nM
[2]
  Emax: 93.8%

## Cc1nn(CC2CCC2)c2ccc(Nc3n[nH]c4cccnc34)cc12
[1]; read-out: EC50
  EC50: 46.8 nM
[2]
  Emax: 93.2%

## Cn1nc(C(=O)NC2CCC2)c2ccc(Nc3n[nH]c4cccnc34)cc21
[1]; read-out: EC50
  EC50: 653 nM
[2]
  Emax: 70.3%

## Cn1nc(C(=O)N2CCC(F)(F)CC2)c2ccc(Nc3n[nH]c4cccnc34)cc21
[1]; read-out: EC50
  EC50: 498 nM
[2]
  Emax: 89.5%

## Cn1nc(OCC2CCCCO2)c2ccc(Nc3n[nH]c4cccnc34)cc21 (centres undefined)
[2]
  Emax: 100%

## Cn1nc(C(=O)NC2CC(F)(F)C2)c2ccc(Nc3n[nH]c4cccnc34)cc21
[1]; read-out: EC50
  EC50: 116 nM
[2]
  Emax: 52.2%

## CCc1nn(C)c2cc(Nc3n[nH]c4cccnc34)ccc12
[1]; read-out: EC50
  EC50: 37.9 nM
[2]
  Emax: 94.5%

## c1cnc2c(Nc3ccc4c(C5CC5)n[nH]c4c3)n[nH]c2c1
[3]
  fraction unbound: 0.014
[4]
  fraction unbound: 0.031
[5]
  fold induction: 13.5
[6]
  IC50: 280 nM
[1]; read-out: EC50
  EC50: 452 nM
[2]
  Emax: 76.5%
[7]
  CLhep predicted: 30.8 mL/min/kg

## Cn1ncc2cc(Nc3n[nH]c4cccnc34)ccc21
[3]
  fraction unbound: 0.127
[4]
  fraction unbound: 0.118
[5]
  fold induction: 28
[6]
  IC50: 530 nM
[1]; read-out: EC50
  EC50: 870 nM
[2]
  Emax: 110%
[7]
  CLhep predicted: 40.1 mL/min/kg

## Cc1cc(COc2nn(C)c3cc(Nc4n[nH]c5cccnc45)ccc23)on1
[2]
  Emax: 107%

## Cc1nn(C)c2cc(Nc3n[nH]c4cccnc34)ccc12
[3]
  fraction unbound: 0.089
[4]
  fraction unbound: 0.058
[5]
  fold induction: 25
[6]
  IC50: < 100 nM
[1]; read-out: EC50
  EC50: 78.1 nM
[2]
  Emax: 98%
[7]
  CLhep predicted: 18.6 mL/min/kg

## Cn1nc(C2CC2)c2ccc(Nc3n[nH]c4cccnc34)cc21
[8]
  concentration at 1 h: 816 ng/g
[3]
  fraction unbound: 0.024
[9]
  efflux ratio: 1.2
[10]
  concentration at 1 h: 787 ng/mL
[4]
  fraction unbound: 0.022
[11]
  Kp at 1 h: 1.04
[5]
  fold induction: 2.3
[12]
  Kp uu at 1 h: 0.3
[6]
  IC50: 350 nM
[1]; read-out: EC50
  EC50: 43 nM
[2]
  Emax: 88.7%
[7]
  CLhep predicted: 21.5 mL/min/kg
